The test system of experiment [1] is T1, tubulin.
T1 construct: tubulin isolated from bovine brain (α/β heterodimer); with α-tubulin/β-tubulin heterodimer
Kind of experiment: turbidimetric tubulin polymerization assay (absorbance at […] nm), positive control. The experiment is classed as biochemical, Bos taurus.

Experiment [2] deals with T1, tubulin. Kind of experiment: turbidimetric tubulin polymerization assay (absorbance at […] nm). The experiment is classed as biochemical, Bos taurus.

The results in this text go back to publication PMC6269846, “Pyrrolizidine Alkaloids and Fatty Acids from the Endemic Plant Species Rindera umbellata and the Effect of Lindelofine-N-oxide on Tubulin Polymerization” (Molecules, 2013).

The structures appear in SMILES notation.

By IC50 is commonly meant the concentration needed to halve the response being measured. In the experiment on tubulin [1], `CC(=O)O[C@H]1C(=O)[C@@]2(C)[C@H]([C@H](OC(=O)c3ccccc3)[C@]3(O)C[C@H](OC(=O)[C@H](O)[C@@H](NC(=O)c4ccccc4)c4ccccc4)C(C)=C1C3(C)C)[C@]1(OC(C)=O)CO[C@@H]1C[C@@H]2O` [paclitaxel] returned an IC50 of 2.4 µM.

`CC(C)[C@@](O)(C(=O)OC[C@@H]1CC[N+]2([O-])CCC[C@H]12)[C@@H](C)O` (stereo partly drawn) [compound 7, (2S,3R)-((1R,7aR)-hexahydro-1H-pyrrolizin-1-yl)methyl2,3-dihydroxy-2-isopropylbutanoate-N-oxide] returned an IC50 in the experiment with tubulin [2] of 91 µM.
